The results in this text go back to US20230146675A1, “PYRIMIDO[5,4-d]PYRIMIDINE DERIVATIVES AS ENT INHIBITORS FOR THE TREATMENT OF CANCERS, AND COMBINATION THEREOF WITH ADENOSINE RECEPTOR ANTAGONISTS” (ITEOS BELGIUM SA, priority 2020, published 2023).

Each structure is given as a SMILES string.

The test deals with T1, human ENT1 (Homo sapiens, UniProt Q99808).
T1 sequence (Q99808 1-456): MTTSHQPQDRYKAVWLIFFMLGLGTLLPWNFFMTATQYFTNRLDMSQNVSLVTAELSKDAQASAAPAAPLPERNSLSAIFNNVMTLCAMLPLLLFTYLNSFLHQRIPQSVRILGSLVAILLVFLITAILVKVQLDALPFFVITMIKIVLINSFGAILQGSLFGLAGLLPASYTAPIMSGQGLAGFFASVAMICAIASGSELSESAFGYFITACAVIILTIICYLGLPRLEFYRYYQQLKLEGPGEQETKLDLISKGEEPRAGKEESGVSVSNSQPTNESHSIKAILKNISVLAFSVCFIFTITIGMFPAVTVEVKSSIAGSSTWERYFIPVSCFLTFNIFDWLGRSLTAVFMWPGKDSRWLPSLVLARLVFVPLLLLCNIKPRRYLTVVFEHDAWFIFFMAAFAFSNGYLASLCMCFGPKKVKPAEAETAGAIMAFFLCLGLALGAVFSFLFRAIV
The test is described as follows: ENT1 binding assay (competition with Sahenta-DY647 on JAR cells). Also on record: JAR cells expressing ENT1 were bought from ATCC; host or cells: JAR cells. To be noted: binned IC50. The method in brief: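 JAR cells were incubated with test compounds and the fluorescent ligand Sahenta-DY647 in competition. Plates were washed twice by centrifugation (4 min, 400 rcf, 4 °C). Binding potency was derived from the final fluorescence.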
On to `COCCN(CCOC)c1nc(N2CCC(OC)CC2)c2nc(N(CCO)CCO)nc(N3CCN(C4CC4)C(=O)C3)c2n1` [Compound 315, 4-(2-(bis(2-hydroxyethyl)amino)-6-(bis(2-methoxyethyl)amino)-8-(4-methoxypiperidin-1-yl)pyrimido[5,4-d]pyrimidin-4-yl)-1-cyclopropylpiperazin-2-one], for which the IC50 was 500 to 1000 nM.
As to `COCCN(CCOC)c1nc(N2CCN(C3CC3)C(=O)C2)c2nc(N(CCO)CCO)nc(N3CCC(OC)CC3)c2n1` [Compound 316, 4-(6-(bis(2-hydroxyethyl)amino)-2-(bis(2-methoxyethyl)amino)-8-(4-methoxypiperidin-1-yl)pyrimido[5,4-d]pyrimidin-4-yl)-1-cyclopropylpiperazin-2-one], the IC50 is 500 to 1000 nM.
In the case of `COCCN(CCOC)c1nc(N2CCC(OC)CC2)c2nc(N(CCOC)CCOC)nc(N3CCCCC3)c2n1` [Compound 318, N2,N2,N6,N6-tetrakis(2-methoxyethyl)-4-(4-methoxypiperidin-1-yl)-8-(piperidin-1-yl)pyrimido[5,4-d]pyrimidine-2,6-diamine], the IC50 lay within 500 to 1000 nM.
`COCCN(CCOC)c1nc(N2CCN(C)C(=O)C2)c2nc(N(CCOC)CCOC)nc(N3CCCCC3)c2n1` [Compound 319, 4-(2,6-bis(bis(2-methoxyethyl)amino)-8-(piperidin-1-yl)pyrimido[5,4-d]pyrimidin-4-yl)-1-methylpiperazin-2-one] yielded an IC50 of 100 to 500 nM.
As for `COCCN(CCOC)c1nc(N2CCN(C)C(=O)C2)c2nc(N(CCOC)CCOC)nc(N(C)C)c2n1` [Compound 320, 4-(2,6-bis(bis(2-methoxyethyl)amino)-8-(dimethylamino)pyrimido[5,4-d]pyrimidin-4-yl)-1-methylpiperazin-2-one], the IC50 lay in the range of 500 to 1000 nM.
In turn, `COC1CCN(c2nc(N(CCO)CCO)nc3c(N4CCN(C)C(=O)C4)nc(N(CCO)CCO)nc23)CC1` [Compound 321, 4-(2,6-bis(bis(2-hydroxyethyl)amino)-8-(4-methoxypiperidin-1-yl)pyrimido[5,4-d]pyrimidin-4-yl)-1-methylpiperazin-2-one] returned an IC50 of 500 to 1000 nM.
`COCCN(CCOC)c1nc(N2CCC(OC)CC2)c2nc(N(CCO)CCO)nc(N3CCc4oc(C)nc4C3)c2n1` [Compound 322, 2,2′-((6-(bis(2-methoxyethyl)amino)-8-(4-methoxypiperidin-1-yl)-4-(2-methyl-6,7-dihydrooxazolo[4,5-c]pyridin-5(4H)-yl)pyrimido[5,4-d]pyrimidin-2-yl)azanediyl)bis(ethan-1-ol)]: the IC50 fell in the range of 100 to 500 nM.
To `COCCN(CCOC)c1nc(N2CCn3nc(C)nc3C2)c2nc(N(CCO)CCO)nc(N3CCC(OC)CC3)c2n1` [Compound 323, 2,2′-((6-(bis(2-methoxyethyl)amino)-4-(4-methoxypiperidin-1-yl)-8-(2-methyl-5,6-dihydro-[1,2,4]triazolo[1,5-a]pyrazin-7(8H)-yl)pyrimido[5,4-d]pyrimidin-2-yl)azanediyl)bis(ethan-1-ol)] belongs 100 to 500 nM; to `COCCN(CCOC)c1nc(NCc2cccc(F)c2)c2nc(N(CCO)CCO)nc(N3CCC(OC)CC3)c2n1` [Compound 324, 2,2′-((6-(bis(2-methoxyethyl)amino)-8-((3-lluorobenzyl)amino)-4-(4-methoxypiperidin-1-yl)pyrimido[5,4-d]pyrimidin-2-yl)azanediyl)bis(ethan-1-ol)], less than 100 nM.
Take `COCCN(CCOC)c1nc(NCc2cccc(C#N)c2)c2nc(N(CCO)CCO)nc(N3CCC(OC)CC3)c2n1` [Compound 325, 3-(((6-(bis(2-hydroxyethyl)amino)-2-(bis(2-methoxyethyl)amino)-8-(4-methoxypiperidin-1-yl)pyrimido[5,4-d]pyrimidin-4-yl)amino)methyl)benzonitrile]: the IC50 was less than 100 nM.
`COCCN(CCOC)c1nc(N2CC(O)(C(F)(F)F)C2)c2nc(N(CCO)CCO)nc(N3CCC(OC)CC3)c2n1` [Compound 326, 2,2′-((6-(bis(2-methoxyethyl)amino)-8-(3-hydroxy-3-(trifluoromethyl)azetidin-1-yl)-4-(4-methoxypiperidin-1-yl)pyrimido[5,4-d]pyrimidin-2-yl)azanediyl)bis(ethan-1-ol)]: the IC50 lay within 500 to 1000 nM.
For `COCCN(CCOC)c1nc(N2CCC(OC)CC2)c2nc(N(CC(C)O)CC(C)O)nc(N3CCN(C)C(=O)C3)c2n1` (centres unmarked) [Compound 327, 4-(2-(bis(2-hydroxypropyl)amino)-6-(bis(2-methoxyethyl)amino)-8-(4-methoxypiperidin-1-yl)pyrimido[5,4-d]pyrimidin-4-yl)-1-methylpiperazin-2-one], the IC50 was less than 100 nM.
On to `COC(C)CN(CC(C)OC)c1nc(N2CCC(OC)CC2)c2nc(N(CCO)CCO)nc(N3CCN(C)C(=O)C3)c2n1` (centres unmarked) [Compound 328, 4-(2-(bis(2-hydroxyethyl)amino)-6-(bis(2-methoxypropyl)amino)-8-(4-methoxypiperidin-1-yl)pyrimido[5,4-d]pyrimidin-4-yl)-1-methylpiperazin-2-one], for which the IC50 was 100 to 500 nM.
On to `COCCCN(CCCOC)c1nc(N2CCC(OC)CC2)c2nc(N(CCCO)CCCO)nc(N3CCN(C)C(=O)C3)c2n1` [Compound 329, 4-(2-(bis(3-hydroxypropyl)amino)-6-(bis(3-methoxypropyl)amino)-8-(4-methoxypiperidin-1-yl)pyrimido[5,4-d]pyrimidin-4-yl)-1-methylpiperazin-2-one], for which the IC50 was less than 100 nM.
Take `COCCCN(CCCOC)c1nc(N2CCC(OC)CC2)c2nc(N(CCCO)CCCO)nc(N3CCC(OC)CC3)c2n1` [Compound 330, 3,3′-((6-(bis(3-methoxypropyl)amino)-4,8-bis(4-methoxypiperidin-1-yl)pyrimido[5,4-d]pyrimidin-2-yl)azanediyl)bis(propan-1-ol)]: the IC50 is 100 to 500 nM.
The figure for `COCCN(Cc1ccc(C(=O)O)cc1)c1nc(N2CCN(C)C(=O)C2)c2nc(N(CCOC)CCOC)nc(N3CCC(OC)CC3)c2n1` [Compound 333, 4-(((6-(bis(2-methoxyethyl)amino)-8-(4-methoxypiperidin-1-yl)-4-(4-methyl-3-oxopiperazin-1-yl)pyrimido[5,4-d]pyrimidin-2-yl)(2-methoxyethyl)amino)methyl)benzoic acid] is 500 to 1000 nM; for `COCCN(CCC(=O)NS(=O)(=O)N(C)C)c1nc(N2CCN(C)C(=O)C2)c2nc(N(CCOC)CCOC)nc(N3CCC(OC)CC3)c2n1` [Compound 334, 3-((6-(bis(2-methoxyethyl)amino)-8-(4-methoxypiperidin-1-yl)-4-(4-methyl-3-oxopiperazin-1-yl)pyrimido[5,4-d]pyrimidin-2-yl)(2-methoxyethyl)amino)-N-(N,N-dimethylsulfamoyl)propanamide] it is 500 to 1000 nM.
To `COCCN(CCOC)c1nc(N2CCc3oc(C)nc3C2)c2nc(N(CCOC)Cc3ccc(C(=O)O)cc3)nc(N3CCN(C)C(=O)C3)c2n1` [Compound 335, 4-(((6-(bis(2-methoxyethyl)amino)-4-(4-methyl-3-oxopiperazin-1-yl)-8-(2-methyl-6,7-dihydrooxazolo[4,5-c]pyridin-5(4H)-yl)pyrimido[5,4-d]pyrimidin-2-yl)(2-methoxyethyl)amino)methyl)benzoic acid] belongs less than 100 nM.
Take `COCCN(Cc1ccc(C(=O)O)c(F)c1)c1nc(N2CCN(C)C(=O)C2)c2nc(N(CCOC)CCOC)nc(N3CCC(OC)CC3)c2n1` [Compound 336, 4-(((6-(bis(2-methoxyethyl)amino)-8-(4-methoxypiperidin-1-yl)-4-(4-methyl-3-oxopiperazin-1-yl)pyrimido[5,4-d]pyrimidin-2-yl)(2-methoxyethyl)amino)methyl)-2-fluorobenzoic acid]: the IC50 is less than 100 nM.
To `COCCN(Cc1ccc(C(=O)O)c(OC)c1)c1nc(N2CCN(C)C(=O)C2)c2nc(N(CCOC)CCOC)nc(N3CCC(OC)CC3)c2n1` [Compound 337, 4-(((6-(bis(2-methoxyethyl)amino)-8-(4-methoxypiperidin-1-yl)-4-(4-methyl-3-oxopiperazin-1-yl)pyrimido[5,4-d]pyrimidin-2-yl)(2-methoxyethyl)amino)methyl)-2-methoxybenzoic acid] belongs 100 to 500 nM.
For `COCCN(Cc1ccc(C(=O)O)c(C)c1)c1nc(N2CCN(C)C(=O)C2)c2nc(N(CCOC)CCOC)nc(N3CCC(OC)CC3)c2n1` [Compound 338, 4-(((6-(bis(2-methoxyethyl)amino)-8-(4-methoxypiperidin-1-yl)-4-(4-methyl-3-oxopiperazin-1-yl)pyrimido[5,4-d]pyrimidin-2-yl)(2-methoxyethyl)amino)methyl)-2-methylbenzoic acid], the IC50 was less than 100 nM.
In turn, `COCCN(Cc1ccc(C(=O)O)c(C(F)(F)F)c1)c1nc(N2CCN(C)C(=O)C2)c2nc(N(CCOC)CCOC)nc(N3CCC(OC)CC3)c2n1` [Compound 339, 4-(((6-(bis(2-methoxyethyl)amino)-8-(4-methoxypiperidin-1-yl)-4-(4-methyl-3-oxopiperazin-1-yl)pyrimido[5,4-d]pyrimidin-2-yl)(2-methoxyethyl)amino)methyl)-2-(trifluoromethyl)benzoic acid] had an IC50 of less than 100 nM.
The compound `COCCN(Cc1cc(F)c(C(=O)O)c(F)c1)c1nc(N2CCN(C)C(=O)C2)c2nc(N(CCOC)CCOC)nc(N3CCC(OC)CC3)c2n1` [Compound 340, 4-(((6-(bis(2-methoxyethyl)amino)-8-(4-methoxypiperidin-1-yl)-4-(4-methyl-3-oxopiperazin-1-yl)pyrimido[5,4-d]pyrimidin-2-yl)(2-methoxyethyl)amino)methyl)-2,6-difluorobenzoic acid] came in with a half-inhibitory concentration (IC50) of less than 100 nM.

Usually IC50 stands for the point on the concentration scale where inhibition reaches its midpoint. Lower therefore signals higher potency.
